Source: patent publication US8802597B2, “Herbicidal pyrimidines” (E I du Pont de Nemours and Company, priority 2003, dated 2014)

Tests used:
Format in all cases: in vivo
[1] = system: (turf) bermudagrass (Cynodon dactylon); experiment: Test F pre/postemergence
Description: (§1) Seeds or nutlets of plant species selected from (turf) bermudagrass (Cynodon dactylon), Kentucky bluegrass (Poa pratensis), bentgrass (Agrostis palustris), hard fescue (Festuca ovina), large crabgrass (Digitaria sanguinalis), goosegrass (Eleusine indica), dallisgrass (Paspalum dilatatum), annual bluegrass (Poa annua), common chickweed (Stellaria media), dandelion (Taraxacum officinale), white clover (Trifolium repens), and yellow nutsedge (Cyperus esculentus) were planted and treated preemergence with the test chemical formulated in a non-phytotoxic solvent mixture which included a surfactant.
(§2) At the same time, plants selected from these crop and weed species were treated with postemergence applications of the test chemical formulated in the same manner. Plants ranged in height from 2 to 18 cm (1- to 4-leaf stage) for postemergence treatments. Treated plants and controls were maintained in a greenhouse for 12 to 14 days, after which time all species were compared to controls and visually evaluated. Plant response ratings, summarized in Table F, are based on a scale of 0 to 100 where 0 is no effect and 100 is complete control. A dash (-) response means no test result.

[2] = system: Kentucky bluegrass (Poa pratensis); experiment: Test F pre/postemergence
Description: as §1, §2

[3] = system: yellow nutsedge (Cyperus esculentus); experiment: Test F pre/postemergence
Description: as §1, §2

[4] = system: hard fescue (Festuca ovina); experiment: Test F pre/postemergence
Description: as §1, §2

[5] = system: daisy fleabane (Erigeron spp.); experiment: Test L field study, Compound 1 and nicosulfuron; conditions: Compound 1 125 g a.i./ha, approximately 56 days after treatment
Description: (§3) This field study included treatments that consisted of Compound 1 and nicosulfuron alone and in combination on Canada thistle (Cirsium arvense) and daisy fleabane (Erigeron spp.). The plants ranged from 20 to 30 cm in height at the time of application during the month of May in the vicinity of Newark, Del. Compound 1 was formulated as a wettable powder containing 25% active ingredient by weight. Nicosulfuron was in the form of Accent® Herbicide, a water-dispersible granule formulation containing 75% active ingredient by weight. The formulations were dispersed in water in the sprayer tank before treatment. The treatments were made using a backpack sprayer calibrated to deliver 24 gallons per acre (224 L per hectare) to a 10 ft×30 ft (3 m×9 m) plot. Each treatment was replicated two times. The effects on the plants approximately 56 days after treatment were visually compared to untreated controls. Plant response ratings were calculated as the means of the two replicates, based on a scale of 0 to 100 where 0 is no effect and 100 is complete control. Colby's Equation was used to determine the herbicidal effects expected from the mixture.

[6] = system: Canada thistle (Cirsium arvense); experiment: Test L field study, Compound 1 and nicosulfuron; conditions: Compound 1 125 g a.i./ha, approximately 56 days after treatment
Description: as §3

CCOC(=O)c1nc(C2CC2)nc(N)c1Br [Compound 1, ethyl 6-amino-5-bromo-2-cyclopropyl-4-pyrimidinecarboxylate]
Plant response rating (0 to 100 scale) ([1]; Postemergence, 31 g ai/ha): 0 | Plant response rating (0 to 100 scale) ([1]; Postemergence, 62 g ai/ha): 20 | Plant response rating (0 to 100 scale) ([1]; Postemergence, 125 g ai/ha): 40 | Plant response rating (0 to 100 scale) ([1]; Postemergence, 250 g ai/ha): 50 | Plant response rating (0 to 100 scale) ([1]; Postemergence, 500 g ai/ha): 70 | Plant response rating (0 to 100 scale) ([1]; Preemergence, 31 g ai/ha): 10 | Plant response rating (0 to 100 scale) ([1]; Preemergence, 62 g ai/ha): 40 | Plant response rating (0 to 100 scale) ([1]; Preemergence, 125 g ai/ha): 50 | Plant response rating (0 to 100 scale) ([1]; Preemergence, 250 g ai/ha): 80 | Plant response rating (0 to 100 scale) ([1]; Preemergence, 500 g ai/ha): 90 | Plant response rating (0 to 100 scale) ([2]; Postemergence, 31 g ai/ha): 20 | Plant response rating (0 to 100 scale) ([2]; Postemergence, 62 g ai/ha): 0 | Plant response rating (0 to 100 scale) ([2]; Postemergence, 125 g ai/ha): 0 | Plant response rating (0 to 100 scale) ([2]; Postemergence, 250 g ai/ha): 0 | Plant response rating (0 to 100 scale) ([2]; Postemergence, 500 g ai/ha): 30 | Plant response rating (0 to 100 scale) ([2]; Preemergence, 31 g ai/ha): 0 | Plant response rating (0 to 100 scale) ([2]; Preemergence, 62 g ai/ha): 30 | Plant response rating (0 to 100 scale) ([2]; Preemergence, 125 g ai/ha): 30 | Plant response rating (0 to 100 scale) ([2]; Preemergence, 250 g ai/ha): 40 | Plant response rating (0 to 100 scale) ([2]; Preemergence, 500 g ai/ha): 80 | Plant response rating (0 to 100 scale) ([3]; Postemergence, 31 g ai/ha): 0 | Plant response rating (0 to 100 scale) ([3]; Postemergence, 62 g ai/ha): 10 | Plant response rating (0 to 100 scale) ([3]; Postemergence, 125 g ai/ha): 10 | Plant response rating (0 to 100 scale) ([3]; Postemergence, 250 g ai/ha): 15 | Plant response rating (0 to 100 scale) ([3]; Postemergence, 500 g ai/ha): 15 | Plant response rating (0 to 100 scale) ([3]; Preemergence, 31 g ai/ha): 0 | Plant response rating (0 to 100 scale) ([3]; Preemergence, 62 g ai/ha): 15 | Plant response rating (0 to 100 scale) ([3]; Preemergence, 125 g ai/ha): 30 | Plant response rating (0 to 100 scale) ([3]; Preemergence, 250 g ai/ha): 25 | Plant response rating (0 to 100 scale) ([3]; Preemergence, 500 g ai/ha): 70 | Plant response rating (0 to 100 scale) ([4]; Postemergence, 31 g ai/ha): 0 | Plant response rating (0 to 100 scale) ([4]; Postemergence, 62 g ai/ha): 0 | Plant response rating (0 to 100 scale) ([4]; Postemergence, 125 g ai/ha): 0 | Plant response rating (0 to 100 scale) ([4]; Postemergence, 250 g ai/ha): 0 | Plant response rating (0 to 100 scale) ([4]; Postemergence, 500 g ai/ha): 0 | Plant response rating (0 to 100 scale) ([4]; Preemergence, 31 g ai/ha): 50 | Plant response rating (0 to 100 scale) ([4]; Preemergence, 62 g ai/ha): 60 | Plant response rating (0 to 100 scale) ([4]; Preemergence, 125 g ai/ha): 60 | Plant response rating (0 to 100 scale) ([4]; Preemergence, 250 g ai/ha): 60 | Plant response rating (0 to 100 scale) ([4]; Preemergence, 500 g ai/ha): 90 | Obsd. observed effect (0 to 100 scale) [5]: 53 | Obsd. observed effect (0 to 100 scale) [6]: 73
